Data on four compounds can be found in paper PMC6392429 (ACS infectious diseases, 2018).

Several values for one entry are separate records, joined by “and”; a condition that tells them apart may be missing. Equal values may be shown once. Read-outs that look alike come from different tables or passages of the source.

Series [1] addresses T1, DENV2 sE2 (Dengue virus type 2, UniProt P14340). Particulars: assay optimisation, Figure S1.
Series [2] deals with DENV2 NGC. The series is described as follows: Viral infectivity assay. Particulars: negative control compound. The series is classed as cell-based, dengue virus serotype 2 New Guinea C.
In series [3] the target is T1, DENV2 sE2. The note with it: biolayer interferometry.
Series [4] concerns the target T2, malate dehydrogenase (MDH) (Sus scrofa, UniProt P00346).
T2 sequence (P00346 25-338): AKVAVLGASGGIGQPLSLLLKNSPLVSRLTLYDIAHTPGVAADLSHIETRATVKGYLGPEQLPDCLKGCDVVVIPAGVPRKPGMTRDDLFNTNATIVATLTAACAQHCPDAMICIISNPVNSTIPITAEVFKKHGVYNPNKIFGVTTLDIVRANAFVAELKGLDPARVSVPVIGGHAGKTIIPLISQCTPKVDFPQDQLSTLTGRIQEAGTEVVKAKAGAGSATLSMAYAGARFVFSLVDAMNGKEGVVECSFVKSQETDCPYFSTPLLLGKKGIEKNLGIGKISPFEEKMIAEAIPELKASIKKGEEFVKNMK
The series is described as follows: Malate dehydrogenase. The series is classed as biochemical.

Series [5] in a line: Microsome stability in vitro. The series is classed as in vitro ADME. Particulars: mouse microsomes in vitro.
For series [6], the system named is E-mediated fusion of DENV2 virions with liposomes. The note with it: for Inhibition of E-mediated fusion: close to IC90.
For series [7], the target named is AmpC β-lactamase (Escherichia coli, UniProt P00811).
AmpC β-lactamase, sequence (P00811 20-377): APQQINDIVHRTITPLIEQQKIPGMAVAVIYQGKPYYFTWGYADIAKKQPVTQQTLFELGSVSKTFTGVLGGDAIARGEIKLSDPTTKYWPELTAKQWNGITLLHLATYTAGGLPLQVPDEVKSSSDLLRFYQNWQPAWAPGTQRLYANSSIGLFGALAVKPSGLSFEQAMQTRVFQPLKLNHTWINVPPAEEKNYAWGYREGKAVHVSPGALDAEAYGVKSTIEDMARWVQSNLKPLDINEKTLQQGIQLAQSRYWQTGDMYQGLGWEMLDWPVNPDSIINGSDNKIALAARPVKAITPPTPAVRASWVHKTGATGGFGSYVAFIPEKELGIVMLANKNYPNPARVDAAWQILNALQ
Series [8] in a line: Dynamic light scattering, particle size. The series is classed as physicochemical.
For series [9], the system named is ZIKV PF-251013–18. The series can be described thus: Plaque reduction assay, ZIKV. The note with it: read-out: PRNT50 ZIKV. On the technique in general: In a plaque reduction assay, fewer plaques than in the control indicate reduced infectivity or spread.
Series [10] deals with BHK-21 cells. The series is classed as cell-based.
Series [11] deals with DENV4 TVP360. The series can be described thus: Plaque reduction assay, DENV4. The series is classed as cell-based, dengue virus serotype 4. Particulars: read-out: PRNT50 DENV4.
Series [12] has as its system DENV1 WP74. The series is described as follows: Plaque reduction assay, DENV1. The series is classed as cell-based, dengue virus serotype 1. The note with it: read-out: PRNT50 DENV1.
For series [13], the system named is DENV3 THD3. The series can be described thus: Plaque reduction assay, DENV3. The note with it: read-out: PRNT50 DENV3. The series is classed as cell-based, dengue virus serotype 3.
Series [14] deals with DENV2 NGC. The series can be described thus: Plaque reduction assay, DENV2. Type of series: cell-based, dengue virus serotype 2. The note with it: read-out: PRNT50 DENV2.
The subject of series [15] is VSV-eGFP. Type of series: cell-based, vesicular stomatitis virus.
The mark [16] stands for this setting: read-out: IC50 MDH no TritonX, no Triton X-100.
[17] abbreviates: read-out: IC50 MDH with TritonX, with 0.01% Triton X-100.
Where [18] appears, read: read-out: IC50 AmpC no TritonX, no Triton X-100.
Setting [19] is: read-out: IC50 AmpC with TritonX, with 0.01% Triton X-100.

With `CN1CCN(c2ccc(Nc3cc(Oc4ccccc4)ncn3)cc2)CC1` [JW-068, N−[4-(4-Methylpiperazin-1-yl)phenyl]-6-phenoxypyrimidin-4-amine], the “Competition with GNF2-biotin for binding to sE2” value in [1] is reported as “absence of competition”. In addition, in series [2], the “Inhibition of DENV2 infection” value is reported as “does not inhibit DENV2 infection”.

For the compound `COc1cc(C(=O)NS(=O)(=O)c2ccccc2C)ccc1Cc1cn(C)c2ccc(NC(=O)OC3CCCC3)cc12` [S1633], the Kd (commonly the constant that tells how readily two partners part at equilibrium) in [3] came to 5200 ± 2100 nM. Also, the IC50 is 48.2 µM in series [4] (setting [16]); over 100 µM in series [4] (setting [17]); 36.6 µM in series [7] (setting [18]); over 100 µM in series [7] (setting [19]); over 10 µM in series [9] (Vero cells, scored); 1000 to 10000 nM in series [11] (BHK-21 cells, scored). Besides, the IC50 in series [12] (BHK-21 cells, scored) was 1000 to 10000 nM; in series [13] (BHK-21 cells, scored), over 10 µM; in [14] (BHK-21 cells, scored), 1000 to 10000 nM. Also, the “T1/2 (Microsome stability)” value in series [5] is 37.7 min. In addition, the “Inhibition of E-mediated fusion” value in [6] (10 μM) is on record as “inhibit E-mediated fusion”. For the same compound, the “Particle size at 40 μM with Tween20” value in series [8] is recorded as 9.2 nm. In series [8], the “Particle size at 40 μM without Tween20” value is recorded as 823 nm. In series [10], the CC50 (as a rule, the concentration that lowers cell viability or growth by half) came out at 50 ± 3 µM.

For `Cc1cc(C(C#N)c2ccc(Cl)cc2)c(Cl)cc1NC(=O)c1cc(I)cc(I)c1O` (stereo not drawn) [S4105], the Kd in series [3] was found to be 900 ± 300 nM. Further, the IC50 in series [4] (setting [16]) is 0.3 µM; in series [4] (setting [17]) it was over 100 µM; in series [7] (setting [18]), 19.5 µM; in series [7] (setting [19]), over 100 µM; in series [9] (Vero cells, scored), under 1 µM; in series [9] (bound stated), at most 1 µM. The IC50 was under 1000 nM in [11] (BHK-21 cells, scored); at most 1000 nM in [11] (bound stated); under 1000 nM in series [12] (BHK-21 cells, scored); at most 1000 nM in series [12] (bound stated); 1 to 10 µM in series [13] (BHK-21 cells, scored); at most 10 µM in [13] (bound stated). Moreover, the IC50 in series [14] (BHK-21 cells, scored) was under 1000 nM; in series [14] (bound stated), at most 1000 nM. In addition, the “T1/2 (Microsome stability)” value in series [5] was over 120 min. Further, in [6] (at 5, 1, and 0.5 μM, Western blot), the “Inhibition of viral fusion (protection of core from trypsin digestion)” value is “inhibit viral fusion in a concentration-dependent manner”. Also, the “Inhibition % vs. VSV-eGFP” value in series [15] was 64% and 60%. Moreover, the “Particle size at 40 μM with Tween20” value in series [8] came out at 13.1 nm. In addition, the “Particle size at 40 μM without Tween20” value in series [8] is on record as 82 nm. It took 50 ± 15 µM to reach half-maximal cytotoxicity in [10] (CC50).

In series [3], `CN(CC(=O)N(Cc1ccc(C2CCCCC2)cc1)c1ccc(C(=O)O)cc1)S(=O)(=O)c1c(F)c(F)c(F)c(F)c1F` [S7337] displayed an equilibrium dissociation constant (Kd) of 1300 ± 500 nM. In addition, the IC50 was 86.4 µM in series [4] (setting [16]); over 100 µM in series [4] (setting [17]); over 100 µM in series [7] (setting [18]); over 100 µM in [7] (setting [19]); 1 to 10 µM in [9] (Vero cells, scored); at most 10 µM in series [9] (bound stated). In addition, the IC50 in series [11] (BHK-21 cells, scored) was under 1000 nM; in [11] (bound stated), at most 1000 nM; in series [12] (BHK-21 cells, scored) it was under 1000 nM; in series [12] (bound stated), at most 1000 nM; in series [13] (bound stated) it was at most 10 µM; in series [14] (BHK-21 cells, scored) it was under 1000 nM. In addition, the IC50 in series [14] (bound stated) was at most 1000 nM. For the same compound, in series [5], the “T1/2 (Microsome stability)” value amounted to 3.2 min. The “Inhibition of E-mediated fusion” value in series [6] (3 μM) was “inhibit E-mediated fusion”. Moreover, the “Particle size at 40 μM with Tween20” value in series [8] is 8.2 nm. Further, in series [8], the “Particle size at 40 μM without Tween20” value came to 144 nm. For the same compound, half-maximal cytotoxicity in [10] (CC50) was put at 13 ± 5 µM.
